Laboratory results as given in patent publication US5292732A, “Pyrrolopyrazine derivatives” (Hoffmann-La Roche Inc., priority 1991, dated 1994).

target: T1, MAO (substrate 5-HT) (Rattus norvegicus, UniProt P21396); test: MAO inhibition in vitro, rat brain homogenate, substrate 14C-labelled serotonin (5-HT); assay type: biochemical; conditions: substrate 5-HT 2×10^-4 M, 37° C.
T1 construct: 20 μl of rat brain homogenate; from tissue; host or cells: rat brain homogenate
T1 sequence (P21396 1-526): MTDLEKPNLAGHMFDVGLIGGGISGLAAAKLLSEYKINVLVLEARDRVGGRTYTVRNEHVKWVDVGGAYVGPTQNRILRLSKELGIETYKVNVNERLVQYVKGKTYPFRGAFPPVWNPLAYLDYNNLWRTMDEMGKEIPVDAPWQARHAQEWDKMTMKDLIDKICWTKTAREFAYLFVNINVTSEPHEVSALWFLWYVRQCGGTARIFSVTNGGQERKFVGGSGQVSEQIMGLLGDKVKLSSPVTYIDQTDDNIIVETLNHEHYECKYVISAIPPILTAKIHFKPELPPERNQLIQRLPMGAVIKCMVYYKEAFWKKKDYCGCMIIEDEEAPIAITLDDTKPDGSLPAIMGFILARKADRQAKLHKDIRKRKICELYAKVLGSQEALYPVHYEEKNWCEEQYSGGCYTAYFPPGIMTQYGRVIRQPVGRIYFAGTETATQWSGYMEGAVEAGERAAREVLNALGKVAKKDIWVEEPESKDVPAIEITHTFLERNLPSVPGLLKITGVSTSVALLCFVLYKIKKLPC
Experimental: (§1) The MAO inhibiting activity of the compounds in accordance with the invention can be determined in vitro or ex vivo using standard methods. The preparations to be tested were investigated in the tests described hereinafter, which were based on the methods of R. J. Wurtmann and J. A. Axelrod [Biochem. Pharmac. 12, 1439-41 (1963).
(§2) Isolated rat brains are homogenized in 0.1 molar potassium phosphate buffer (pH 7.4) in the ratio 1:4 (weight/volume), the homogenate is diluted with the same buffer in the ratio 1:5 (volume/volume) and stored at -20° C. A mixture of the following composition was used for the incubation:
(§3) 100 μl of 1M phosphate buffer (pH 6.7);
(§4) 100 μl of solution of the substance to be tested in water or in 10% aqueous dimethyl sulphoxide;
(§5) 20 μl of rat brain homogenate; and as the substrate
(§6) 80 μl of ^14 C-labelled serotonin (5-HT) or ^14 C-labelled phenylethylamine (PEA), the radioactive concentration of which amounts to 100,000 decay per minute and which is used in a final concentration of 2×10^-4 M and, respectively, 2×10^-5 M.
(§7) A pre-incubation at 37° C. is effected for 30 minutes prior to the addition of the substrate. The incubation (in the presence of the substrate) is likewise effected at 37° C. and lasts for 10 minutes. The reaction is stopped by the addition of 200 μl of 2N hydrochloric acid.
(§8) In order to extract the desaminated product, the mixture is shaken for 10 minutes with 5 ml of diethyl ether or with 5 ml of n-heptane depending on whether 5-HT or PEA is used as the substrate, whereupon the mixture is centrifuged, the aqueous phase is frozen in a dry-ice bath, the organic phase is transferred into a counting glass and the radioactive concentration is determined in a β-counter.
(§9) The activity of the MAO in comparison to the control homogenates (without substance to be tested) is obtained on the basis of the β-values and the IC50 is defined as that concentration of a substance to be tested which reduces the activity of the MAO upon the substrate 5-HT or PEA by 50%.

| Compound | IC50 |
| --- | --- |
| CC1=NCCn2c1cc1c2-c2ccc(C)cc2CC1 [5,6,10,11-tetrahydro-3,8-dimethylbenzo[g]pyrazino[1,2-a]indole] | 2 nM |
| CC1=NCCn2c1ccc2-c1ccc(O[C@@H]2C[C@H]3CC[C@@H]2C3)cc1 (relative stereo) [3,4-Dihydro-1-methyl-6-[p-(2-exonorbornyloxy)phenyl]pyrrolo[1,2-a]pyrazine] | 20 nM |
| CC1NCCn2c1cc1c2-c2ccccc2CC1 (stereo not drawn) [5,6,8,9,10,11-Hexahydro-8-methylbenzo[g]pyrazino[1,2-a]indole] | 90 nM |
| COc1ccc2c(c1)CCc1cc3n(c1-2)CCN=C3C [5,6,10,11-Tetrahydro-3-methoxy-8-methyl-benzo[g]pyrazino[1,2-a]indole] | 0.8 nM |
| CC1=NCCn2c1cc1c2-c2ccc(OC3CCCC3)cc2CC1 [3-cyclopentyloxy-5,6,10,11-tetrahydro-8-methylbenzo[g]pyrazino[1,2-a]indole] | 1 nM |

target: T2, MAO (substrate PEA) (Rattus norvegicus, UniProt P19643); test: MAO inhibition in vitro, rat brain homogenate, substrate 14C-labelled phenylethylamine (PEA); assay type: biochemical; conditions: substrate PEA 2×10^-5 M, 37° C.
T2 construct: 20 μl of rat brain homogenate; from tissue; host or cells: rat brain homogenate
T2 sequence (P19643 1-520): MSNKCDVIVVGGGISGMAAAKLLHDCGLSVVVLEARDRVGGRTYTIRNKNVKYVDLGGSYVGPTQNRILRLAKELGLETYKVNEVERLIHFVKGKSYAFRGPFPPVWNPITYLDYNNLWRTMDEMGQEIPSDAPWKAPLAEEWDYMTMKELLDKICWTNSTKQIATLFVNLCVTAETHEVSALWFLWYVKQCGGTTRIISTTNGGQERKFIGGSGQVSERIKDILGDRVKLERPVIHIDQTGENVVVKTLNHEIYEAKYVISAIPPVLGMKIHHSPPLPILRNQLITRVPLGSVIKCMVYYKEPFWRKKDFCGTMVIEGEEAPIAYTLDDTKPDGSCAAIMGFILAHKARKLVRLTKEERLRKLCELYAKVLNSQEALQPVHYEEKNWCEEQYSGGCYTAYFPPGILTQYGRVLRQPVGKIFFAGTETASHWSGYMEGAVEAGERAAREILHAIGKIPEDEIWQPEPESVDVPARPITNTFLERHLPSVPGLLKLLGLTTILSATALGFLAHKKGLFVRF
Experimental: as §1, §2, §3, §4, §5, §6, §7, §8, §9

| Compound | IC50 |
| --- | --- |
| CC1=NCCn2c1cc1c2-c2ccc(C)cc2CC1 [5,6,10,11-tetrahydro-3,8-dimethylbenzo[g]pyrazino[1,2-a]indole] | > 1000 nM |
| CC1=NCCn2c1ccc2-c1ccc(O[C@@H]2C[C@H]3CC[C@@H]2C3)cc1 (relative stereo) [3,4-Dihydro-1-methyl-6-[p-(2-exonorbornyloxy)phenyl]pyrrolo[1,2-a]pyrazine] | 3 nM |
| CC1NCCn2c1cc1c2-c2ccccc2CC1 (stereo not drawn) [5,6,8,9,10,11-Hexahydro-8-methylbenzo[g]pyrazino[1,2-a]indole] | > 1000 nM |
| COc1ccc2c(c1)CCc1cc3n(c1-2)CCN=C3C [5,6,10,11-Tetrahydro-3-methoxy-8-methyl-benzo[g]pyrazino[1,2-a]indole] | > 1000 nM |
| CC1=NCCn2c1cc1c2-c2ccc(OC3CCCC3)cc2CC1 [3-cyclopentyloxy-5,6,10,11-tetrahydro-8-methylbenzo[g]pyrazino[1,2-a]indole] | 7 nM |

system: MAO in the brain (substrate 5-HT); test: MAO inhibition ex vivo in brain of rats, substrate 5-HT; design: species or system male albino rats (Fu-SPF); conditions: rat, 100 μmol/kg orally, 2 hrs., given in percentage of the control values
Experimental: as §1
(§10) The compounds to be tested are investigated for the inhibition of MAO in the brain and liver of male albino rats (Fu-SPF, 100-140 g. The test compounds are administered orally as a solution or suspension in water in a dosage of 100 μmol per kilogram body weight. After 2 hrs. the animals are narcotized and decapitated. The brain (without cerebellum) and a portion of the liver are dissected out and submitted analogously to the above-described procedure for the determination of the MAO inhibiting activity, whereby the amount of enzyme used is 20 μl of a 1:20 homogenate in the case of brain and 20 μl of a 1:80 homogenate in the case of liver. The activity of the compounds is determined from a comparison of the β-values with the values for control animals treated with vehicle and is given in percentage of the control values.

| Compound | Remaining brain MAO activity, 5-HT (% of control) |
| --- | --- |
| CC1=NCCn2c1cc1c2-c2ccc(C)cc2CC1 [5,6,10,11-tetrahydro-3,8-dimethylbenzo[g]pyrazino[1,2-a]indole] | 43% |
| CC1=NCCn2c1ccc2-c1ccc(O[C@@H]2C[C@H]3CC[C@@H]2C3)cc1 (relative stereo) [3,4-Dihydro-1-methyl-6-[p-(2-exonorbornyloxy)phenyl]pyrrolo[1,2-a]pyrazine] | 45% |
| CC1NCCn2c1cc1c2-c2ccccc2CC1 (stereo not drawn) [5,6,8,9,10,11-Hexahydro-8-methylbenzo[g]pyrazino[1,2-a]indole] | 69% |
| COc1ccc2c(c1)CCc1cc3n(c1-2)CCN=C3C [5,6,10,11-Tetrahydro-3-methoxy-8-methyl-benzo[g]pyrazino[1,2-a]indole] | 28% |
| CC1=NCCn2c1cc1c2-c2ccc(OC3CCCC3)cc2CC1 [3-cyclopentyloxy-5,6,10,11-tetrahydro-8-methylbenzo[g]pyrazino[1,2-a]indole] | 13% |

system: MAO in the liver (substrate 5-HT); test: MAO inhibition ex vivo in liver of rats, substrate 5-HT; design: species or system male albino rats (Fu-SPF); conditions: rat, 100 μmol/kg orally, 2 hrs., given in percentage of the control values
Experimental: as §1, §10

| Compound | MAO inhibition, Liver, 5HT |
| --- | --- |
| CC1=NCCn2c1cc1c2-c2ccc(C)cc2CC1 [5,6,10,11-tetrahydro-3,8-dimethylbenzo[g]pyrazino[1,2-a]indole] | 17% |
| CC1=NCCn2c1ccc2-c1ccc(O[C@@H]2C[C@H]3CC[C@@H]2C3)cc1 (relative stereo) [3,4-Dihydro-1-methyl-6-[p-(2-exonorbornyloxy)phenyl]pyrrolo[1,2-a]pyrazine] | 51% |
| CC1NCCn2c1cc1c2-c2ccccc2CC1 (stereo not drawn) [5,6,8,9,10,11-Hexahydro-8-methylbenzo[g]pyrazino[1,2-a]indole] | 55% |
| COc1ccc2c(c1)CCc1cc3n(c1-2)CCN=C3C [5,6,10,11-Tetrahydro-3-methoxy-8-methyl-benzo[g]pyrazino[1,2-a]indole] | 5% |
| CC1=NCCn2c1cc1c2-c2ccc(OC3CCCC3)cc2CC1 [3-cyclopentyloxy-5,6,10,11-tetrahydro-8-methylbenzo[g]pyrazino[1,2-a]indole] | 8% |

system: MAO in the brain (substrate PEA); test: MAO inhibition ex vivo in brain of rats, substrate PEA; design: species or system male albino rats (Fu-SPF); conditions: rat, 100 μmol/kg orally, 2 hrs., given in percentage of the control values
Experimental: as §1, §10

| Compound | Remaining brain MAO activity (PEA), % of control |
| --- | --- |
| CC1=NCCn2c1cc1c2-c2ccc(C)cc2CC1 [5,6,10,11-tetrahydro-3,8-dimethylbenzo[g]pyrazino[1,2-a]indole] | 82% |
| CC1=NCCn2c1ccc2-c1ccc(O[C@@H]2C[C@H]3CC[C@@H]2C3)cc1 (relative stereo) [3,4-Dihydro-1-methyl-6-[p-(2-exonorbornyloxy)phenyl]pyrrolo[1,2-a]pyrazine] | 11% |
| CC1NCCn2c1cc1c2-c2ccccc2CC1 (stereo not drawn) [5,6,8,9,10,11-Hexahydro-8-methylbenzo[g]pyrazino[1,2-a]indole] | 95% |
| COc1ccc2c(c1)CCc1cc3n(c1-2)CCN=C3C [5,6,10,11-Tetrahydro-3-methoxy-8-methyl-benzo[g]pyrazino[1,2-a]indole] | 86% |
| CC1=NCCn2c1cc1c2-c2ccc(OC3CCCC3)cc2CC1 [3-cyclopentyloxy-5,6,10,11-tetrahydro-8-methylbenzo[g]pyrazino[1,2-a]indole] | 45% |

system: MAO in the liver (substrate PEA); test: MAO inhibition ex vivo in liver of rats, substrate PEA; design: species or system male albino rats (Fu-SPF); conditions: rat, 100 μmol/kg orally, 2 hrs., given in percentage of the control values
Experimental: as §1, §10

| Compound | Remaining liver MAO activity (PEA), % of control |
| --- | --- |
| CC1=NCCn2c1cc1c2-c2ccc(C)cc2CC1 [5,6,10,11-tetrahydro-3,8-dimethylbenzo[g]pyrazino[1,2-a]indole] | 96% |
| CC1=NCCn2c1ccc2-c1ccc(O[C@@H]2C[C@H]3CC[C@@H]2C3)cc1 (relative stereo) [3,4-Dihydro-1-methyl-6-[p-(2-exonorbornyloxy)phenyl]pyrrolo[1,2-a]pyrazine] | 10% |
| CC1NCCn2c1cc1c2-c2ccccc2CC1 (stereo not drawn) [5,6,8,9,10,11-Hexahydro-8-methylbenzo[g]pyrazino[1,2-a]indole] | 78% |
| COc1ccc2c(c1)CCc1cc3n(c1-2)CCN=C3C [5,6,10,11-Tetrahydro-3-methoxy-8-methyl-benzo[g]pyrazino[1,2-a]indole] | 87% |
| CC1=NCCn2c1cc1c2-c2ccc(OC3CCCC3)cc2CC1 [3-cyclopentyloxy-5,6,10,11-tetrahydro-8-methylbenzo[g]pyrazino[1,2-a]indole] | 50% |
